The values that follow come from ChEMBL document CHEMBL1201862, “PubChem BioAssay data set” (2004).

What all share (test): NCI tumour cell line growth inhibition, 48 h
Test [1] has as its system DU-145.
Test [2] deals with A498.
Test [3] relates to OVCAR-5.
Test [4] has as its system SR.
For test [5], the system named is A549.
Test [6] relates to PC-3.
Test [7] deals with NCI-H226.
Test [8] concerns MDA-MB-231.
Test [9] has as its system SF-295.
For test [10], the system named is SN12C.
Test [11] concerns HL-60.
The test system of test [12] is Hs-578T.
Test [13] concerns SNB-19.
For test [14], the system named is SK-MEL-5.
For test [15], the system named is BT-549.

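48-hour exposure; five concentrations; linearly interpolated endpoints. GI50 marks 50% less growth.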 Active and inactive are the calls of the source. Rule as the data show it: active = GI50 up to about 1.1 µM and inactive = higher. A value given as a limit tells only on which side of the number the result lay.

`O=C1NCN(c2ccccc2)C12CCN(CCCSc1ccc(F)cc1)CC2`: the GI50 in test [1] is 11 µM (inactive); in test [2], 11.4 µM (inactive); in test [3] it was 16.9 µM (inactive); in test [4] it was 15.9 µM (inactive); in [5], 33.1 µM (inactive); in [6], 47.2 µM (inactive). The GI50 is 25.5 µM (inactive) in test [7]; 5.52 µM (inactive) in test [8]; 39 µM (inactive) in test [9]; 21.4 µM (inactive) in test [10]; 21.8 µM (inactive) in test [11]; > 42.1 µM (inactive) in test [12]. For the same compound, the GI50 was 97.3 µM (inactive) in test [13] and 6.44 µM (inactive) in test [14].

As to `CC1OC2=N[C@@H]1C(=O)N[C@@H](Cc1ccccc1)C1=N[C@H](C(=O)N[C@@H](Cc3ccccc3)C3=N[C@H](C(=O)N[C@H]2Cc2ccccc2)C(C)O3)C(C)O1` (stereo not given in full), the GI50 in test [1] was 57.9 µM (inactive); in test [2], 29.9 µM (inactive); in test [3], 30.3 µM (inactive); in test [4] it was 27.9 µM (inactive); in test [5], 25.5 µM (inactive); in [6] it was 22.4 µM (inactive). Also, the GI50 in [7] was 29.6 µM (inactive); in test [8], 33 µM (inactive); in test [9], 30.7 µM (inactive); in test [10], 36 µM (inactive); in test [12], 24.3 µM (inactive); in test [15], 40 µM (inactive). In test [14], the GI50 was 24.3 µM (inactive).

For the compound `CC(=O)OCCCCn1cc(Cn2ccc(=O)n(Cc3cn(CCCCOC(C)=O)nn3)c2=O)nn1`, the GI50 in [1], in [2], in test [3], in test [5], in test [6] and in test [7] was > 100 µM (inactive) each time. Also, the GI50 in test [8], in [9], in test [10], in [12], in [13] and in [15] was > 100 µM (inactive) throughout. The GI50 in [14] was > 100 µM (inactive).

As to `C=CS(=O)(=O)c1c2cc(OC)ccc2nc2ccc(OC)cc12`, the GI50 in [1] is 3.53 µM (inactive); in test [2], 12.7 µM (inactive); in test [3], 6.14 µM (inactive); in test [4], 2.32 µM (inactive); in test [5], 17.1 µM (inactive); in [6] it was 7.29 µM (inactive). Also, the GI50 in test [7] is 15.6 µM (inactive); in test [8], 15.5 µM (inactive); in test [9], 15 µM (inactive); in test [10], 2.88 µM (inactive); in test [11], 7.96 µM (inactive); in test [12], 2.97 µM (inactive). The GI50 in test [13] was 12.6 µM (inactive); in test [15], 10.5 µM (inactive); in test [14], 14.1 µM (inactive).

In the case of `NCCC1(N)CCNCC1`, the GI50 in test [1], in test [2], in test [3], in test [4], in test [5] and in [6] was > 100 µM (inactive) each time. The GI50 in [7], in test [8], in test [9], in [10], in [11] and in [12] was > 100 µM (inactive) throughout. For the same compound, the GI50 in test [13], in test [15] and in test [14] was > 100 µM (inactive) each time.

As for `c1ccc(/N=C2\S/C(=N\C3CCCCC3)N(C3CCCCC3)\C2=N/c2ccccc2)cc1`, the GI50 was > 100 µM (inactive) in [1]; > 100 µM (inactive) in [2]; > 100 µM (inactive) in test [3]; > 100 µM (inactive) in test [4]; 67.1 µM (inactive) in [6]; > 100 µM (inactive) in [7]. Besides, the GI50 in test [8], in [9], in test [10], in test [11], in [12] and in [13] was > 100 µM (inactive) each time. The GI50 in [15] was > 100 µM (inactive); in test [14], 80.4 µM (inactive).

For the compound `O=C1NCN(c2ccccc2)C12CCN(CCCN1CCN(CCOC(c3ccc(F)cc3)c3ccc(F)cc3)CC1)CC2`, the GI50 in test [1] was 1.73 µM (inactive); in test [2], 1.84 µM (inactive); in test [3], 3.15 µM (inactive); in [4], 2.36 µM (inactive); in [5] it was 2.03 µM (inactive); in test [6] it was 3.05 µM (inactive). In addition, the GI50 was 1.86 µM (inactive) in test [7]; 2.15 µM (inactive) in test [8]; 1.83 µM (inactive) in test [9]; 1.96 µM (inactive) in test [10]; 1.48 µM (inactive) in test [11]; 2.06 µM (inactive) in test [12]. In addition, the GI50 in test [13] is 2.72 µM (inactive); in [15], 2.64 µM (inactive); in test [14], 1.69 µM (inactive).

Consider `CC(C)=CCC/C(C)=C/CCC(C(=O)COCc1ccccc1)P1(=O)OC(C)(C)CN1C(C)(C)C` (stereo not given), for which the GI50 in [1] is 81.7 µM (inactive); in test [3], > 100 µM (inactive); in test [4], 21.8 µM (inactive); in test [5], 35.6 µM (inactive); in [6], 39.3 µM (inactive); in test [7] it was 30.6 µM (inactive). The GI50 in test [8] was > 100 µM (inactive); in [9] it was 46.6 µM (inactive); in test [10] it was > 100 µM (inactive); in [13], > 100 µM (inactive); in test [15], > 100 µM (inactive); in test [14], 47.6 µM (inactive).

With `Nc1nc(N)c2c(n1)NC(=O)c1c(c3ccccc3n1Cc1ccc(Cl)cc1)C2`, the GI50 in [1] is 14.4 µM (inactive); in test [2], 16 µM (inactive); in [3], 48.9 µM (inactive); in test [4] it was > 10 µM (inactive); in test [5], 21.1 µM (inactive); in [6], 23 µM (inactive). The GI50 is 37.6 µM (inactive) in test [7]; 34.2 µM (inactive) in [9]; 17.3 µM (inactive) in test [10]; 18 µM (inactive) in test [11]; 24 µM (inactive) in [12]; > 100 µM (inactive) in test [13]. The GI50 is 24.2 µM (inactive) in [15] and 15.3 µM (inactive) in test [14].

On to `Clc1nc(Cl)nc(Nc2cccc3ccccc23)n1`, for which the GI50 in test [1], in test [2], in [3], in [4], in test [5] and in test [6] was > 10 µM (inactive) throughout. Besides, the GI50 in test [7] was > 10 µM (inactive); in [8] it was > 10 µM (inactive); in test [9], > 10 µM (inactive); in [10], > 10 µM (inactive); in [11], 7.98 µM (inactive); in [12], > 10 µM (inactive). Moreover, the GI50 in test [13] and in test [14] was > 10 µM (inactive) each time.

As for `O=C1CCCCC[C@]12SC[C@H]1CON=C12`, the GI50 in [1] was 33.8 µM (inactive); in test [2], 7.16 µM (inactive); in test [3] it was > 100 µM (inactive); in test [4], 9.42 µM (inactive); in test [5], 37.1 µM (inactive); in test [7], > 100 µM (inactive). For the same compound, the GI50 in [9] was > 100 µM (inactive); in test [10] it was 23.1 µM (inactive); in [11] it was 25.9 µM (inactive); in test [12], 59 µM (inactive); in test [13] it was > 100 µM (inactive); in test [15] it was 39.2 µM (inactive). Moreover, in [14], the GI50 is > 100 µM (inactive).

Consider `CC1(C)COC(/C=C/C2=NC(C)(C)CO2)=N1`, for which the GI50 in test [1] was 13 µM (inactive); in [2], 0.0401 µM (active); in test [3], 20.4 µM (inactive); in test [4] it was 4.44 µM (inactive); in [5] it was 42.9 µM (inactive); in test [6], 17.5 µM (inactive). The GI50 was 20.9 µM (inactive) in test [7]; 19.7 µM (inactive) in test [8]; 42.2 µM (inactive) in test [9]; 1.95 µM (inactive) in [10]; 20.1 µM (inactive) in test [11]; < 0.01 µM (active) in test [12]. In addition, the GI50 was 68.5 µM (inactive) in test [13], 23.1 µM (inactive) in test [15] and 14 µM (inactive) in test [14].

On to `COC(=O)c1c(O)ccc2c1c1c(n2Cc2cccc(C)c2)C(=O)c2ccccc2C1=O`, for which the GI50 in test [1] is 14.4 µM (inactive); in [2] it was 17.7 µM (inactive); in [3], 22.5 µM (inactive); in test [4], 4.98 µM (inactive); in test [5], 6.97 µM (inactive); in [6] it was 11 µM (inactive). In addition, the GI50 was 17.4 µM (inactive) in test [7]; 16.1 µM (inactive) in test [8]; 13 µM (inactive) in test [9]; 7.76 µM (inactive) in test [10]; 16.6 µM (inactive) in test [11]; 12.4 µM (inactive) in test [12]. For the same compound, the results for the GI50 in [13], in [15] and in test [14] were 14.1 µM (inactive), 15 µM (inactive) and 13.1 µM (inactive), respectively.

Turning to `O=C1CSC(c2c(O)ccc3ccccc23)N1n1c(S)nnc(/C=C/c2c(O)ccc3ccccc23)c1=O` (stereo not given), the GI50 in test [1] was 2.01 µM (inactive); in [2], 2.76 µM (inactive); in test [3], 1.99 µM (inactive); in test [4], 0.51 µM (active); in test [5], 1.32 µM (inactive); in test [6], 3.18 µM (inactive). Further, the GI50 in test [8] was 0.63 µM (active); in test [9], 6.71 µM (inactive); in test [10], 0.752 µM (active); in test [11], 0.232 µM (active); in test [12], 44.4 µM (inactive); in [13], 1.69 µM (inactive). Moreover, the GI50 in test [15] is 0.908 µM (active).
